Results as given in PubChem BioAssay AID1259411 (Chemical Carcinogenesis Research Information System (CCRIS), 2018).
The source made the active and inactive calls. The rule behind the calls is not given here.

System: rodent carcinogenicity bioassays, tumor incidence
Test: CCRIS carcinogenicity studies
Text: The CCRIS database contains chemical records with carcinogenicity, mutagenicity, tumor promotion, and tumor inhibition test results. It was developed by the National Cancer Institute (NCI). Data are derived from studies cited in primary journals, current awareness tools, NCI reports, and other sources. Test results have been reviewed by experts in carcinogenesis and mutagenesis.
CCRIS provides historical information from the years 1985 - 2011. It is no longer updated.
This is an archive assay for CCRIS carcinogenicity studies.

NCC1(CC(=O)O)CCCCC1
carcinogen call (Species: RAT, Strain/Sex: WISTAR/FEMALE, Route: ORAL, Dose: 0, 250, 1000, 2000 MG/KG IN DIET FOR 104 WK (STUDY DURATION: 104 WK), Dose: 0, 250, 1000, 2000 MG/KG IN DIET FOR 104 WK (STUDY DURATION: 104 WK)): inactive; negative | carcinogen call (Species: RAT, Strain/Sex: WISTAR/MALE, Route: ORAL, Dose: 0, 250, 1000, 2000 MG/KG IN DIET FOR 104 WK (STUDY DURATION: 104 WK), Dose: 0, 250, 1000, 2000 MG/KG IN DIET FOR 104 WK (STUDY DURATION: 104 WK), Tumor Site: Type of Lesion: PANCREAS: ACINAR CELL ADENOMA, ACINAR CELL CARCINOMA): active; positive

CN1COCN(Cc2cnc(Cl)s2)/C1=N/[N+](=O)[O-]
carcinogen call (Species: MOUSE, Strain/Sex: TIF:MAGF/MALE, Route: DIET, Dose: 0, 50, 200, 500, 1250, 2500, 5000 PPM IN DIET FOR UP TO 50 WKS (STUDY DURATION: 50 WKS), Dose: 0, 50, 200, 500, 1250, 2500, 5000 PPM IN DIET FOR UP TO 50 WKS (STUDY DURATION: 50 WKS)): inactive; negative for tumors but apoptosis and necrosis observed in liver at doses of 500 | carcinogen call (Species: RAT, Strain/Sex: TIF:RAIF/FEMALE, Route: ORAL (DIET), Dose: 0, 1000, 3000 PPM FOR 1, 10, 20, 30, 40, OR 50 WKS, Dose: 0, 1000, 3000 PPM FOR 1, 10, 20, 30, 40, OR 50 WKS): inactive; negative

N#[N+]c1ccccc1
carcinogen call (Species: MOUSE, Strain/Sex: SWISS/FEMALE, Route: GAVAGE, Dose: 0, 100 MG/KG BW 1X/WK FOR 52 WK (STUDY DURATION: 140 WK), Tumor Site: Type of Lesion: LUNG: TUMOR): active; positive | carcinogen call (Species: MOUSE, Strain/Sex: SWISS/FEMALE, Route: SUBCUTANEOUS, Dose: 0, 10 UG/G BW IN 0.01 ML OF 0.9% SALINE 1/WK FOR 26 WK (STUDY DURATION: 140WK), Tumor Site: Type of Lesion: SUBCUTANEOUS TISSUE: TUMOR): active; positive | carcinogen call (Species: MOUSE, Strain/Sex: SWISS/FEMALE, Route: SUBCUTANEOUS, Dose: 0, 25 MG/KG BW 1X/WK FOR 10 WK (STUDY DURATION: 130 WK)): inactive; negative | carcinogen call (Species: MOUSE, Strain/Sex: SWISS/MALE, Route: GAVAGE, Dose: 0, 100 MG/KG BW 1X/WK FOR 52 WK (STUDY DURATION: 130 WK), Tumor Site: Type of Lesion: LUNG: TUMOR): active; positive | carcinogen call (Species: MOUSE, Strain/Sex: SWISS/MALE, Route: SUBCUTANEOUS, Dose: 0, 10 UG/G BW IN 0.01 ML OF 0.9% SALINE 1/WK FOR 26 WK (STUDY DURATION: 140 WK), Tumor Site: Type of Lesion: SUBCUTANEOUS TISSUE: TUMOR): active; positive | carcinogen call (Species: MOUSE, Strain/Sex: SWISS/MALE, Route: SUBCUTANEOUS, Dose: 0, 25 MG/KG BW 1X/WK FOR 10 WK (STUDY DURATION: 120 WK)): inactive; negative

C[N+]1(C)CCCCC1
carcinogen call (Species: Rat, Strain/Sex: Wistar/Female (50/Group), Route: Oral, Dose: 0, 17, 141, 370 mg/kg/day of 57.9% mepiquat chloride in diet for 24 mo, study duration 24 mo, Dose: 0, 17, 141, 370 mg/kg/day of 57.9% mepiquat chloride in diet for 24 mo, study duration 24 mo): inactive; negative | carcinogen call (Species: Rat, Strain/Sex: Wistar/Male (50/Group), Route: Oral, Dose: 0, 13, 105, 269 mg/kg/day of 57.9% mepiquat chloride in diet for 24 mo, study duration 24 mo, Dose: 0, 13, 105, 269 mg/kg/day of 57.9% mepiquat chloride in diet for 24 mo, study duration 24 mo): inactive; negative

CCOC(=O)CC(SP(=O)(OC)OC)C(=O)OCC (configuration not stated)
carcinogen call (Species: MOUSE, Strain/Sex: B6C3F1/FEMALE, Route: ORAL, Dose: 0, 500, 1000 PPM IN DIET, Dose: 0, 500, 1000 PPM IN DIET): inactive; negative | carcinogen call (Species: MOUSE, Strain/Sex: B6C3F1/MALE, Route: ORAL, Dose: 0, 500, 1000 PPM IN DIET, Dose: 0, 500, 1000 PPM IN DIET): inactive; negative | carcinogen call (Species: RAT, Strain/Sex: F344/FEMALE, Route: ORAL, Dose: 0, 500, 1000 PPM IN DIET, Dose: 0, 500, 1000 PPM IN DIET): inactive; negative | carcinogen call (Species: RAT, Strain/Sex: F344/MALE, Route: ORAL, Dose: 0, 500, 1000 PPM IN DIET, Dose: 0, 500, 1000 PPM IN DIET): inactive; negative

NC(=O)c1ccccc1C(N)=O
carcinogen call (Species: MOUSE, Strain/Sex: B6C3F1/FEMALE, Route: ORAL, Dose: 0, 6200, 12500, 25000 PPM IN DIET FOR 103-105 WK, Dose: 0, 6200, 12500, 25000 PPM IN DIET FOR 103-105 WK): inactive; negative | carcinogen call (Species: MOUSE, Strain/Sex: B6C3F1/MALE, Route: ORAL, Dose: 0, 25000, 50000 PPM IN DIET FOR 105 WK, Dose: 0, 25000, 50000 PPM IN DIET FOR 105 WK): inactive; negative | carcinogen call (Species: RAT, Strain/Sex: F344/FEMALE, Route: ORAL, Dose: 0, 5000, 10000 PPM IN DIET FOR 106 WK, Dose: 0, 5000, 10000 PPM IN DIET FOR 106 WK): inactive; negative | carcinogen call (Species: RAT, Strain/Sex: F344/MALE, Route: ORAL, Dose: 0, 15000, 30000 PPM IN DIET FOR 106 WK, Dose: 0, 15000, 30000 PPM IN DIET FOR 106 WK): inactive; negative

C#C[C@]1(O)CC[C@H]2[C@@H]3CCc4cc(OC)ccc4[C@H]3CC[C@@]21C
carcinogen call (Species: MOUSE, Route: ORAL, Tumor Site: Type of Lesion: MAMMARY GLAND, PITUITARY GLAND): active; positive | carcinogen call (Species: RAT, Route: ORAL, Tumor Site: Type of Lesion: MAMMARY GLAND): active; positive
